Reference: ChEMBL document CHEMBL2321768, “A multivalent approach towards linked dual-pharmacology prostaglandin F receptor agonist/carbonic anhydrase-II inhibitors for the treatment of glaucoma” (Bioorg Med Chem Lett, 2013)

What was measured:
[1] = biological target: Prostaglandin F2-alpha receptor (Mus musculus, UniProt P43117)
Description: Agonist activity at FP receptor in mouse 3T3 fibroblast cells assessed as intracellular calcium mobilization by FLIPR

in vitro [2] = conditions: rabbit
Description: Corneal permeability in rabbit corneal tissues mounted on vertical Using chambers

in vitro [3] = conditions: human, Caco-2
Description: Permeability across human Caco2 cells

[4] = biological target: Prostaglandin F2-alpha receptor (Mus musculus) (UniProt P43117); assay: Intrinsic activity at FP receptor in mouse 3T3 fibroblast cells assessed as maximum compound-evoked response; format: cell-based
Chain of Prostaglandin F2-alpha receptor (Mus musculus) (P43117 whole entry): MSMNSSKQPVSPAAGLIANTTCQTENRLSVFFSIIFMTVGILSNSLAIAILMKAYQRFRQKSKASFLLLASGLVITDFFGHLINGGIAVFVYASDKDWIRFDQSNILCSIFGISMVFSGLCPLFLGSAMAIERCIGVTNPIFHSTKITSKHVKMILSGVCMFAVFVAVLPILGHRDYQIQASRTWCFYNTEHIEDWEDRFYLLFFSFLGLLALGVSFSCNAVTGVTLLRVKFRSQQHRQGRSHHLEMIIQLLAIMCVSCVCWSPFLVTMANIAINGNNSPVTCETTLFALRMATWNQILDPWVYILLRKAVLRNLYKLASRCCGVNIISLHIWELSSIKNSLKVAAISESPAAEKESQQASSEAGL

Chain of Prostaglandin F2-alpha receptor (P43117 whole entry): as above

SMILES	EC50 [1] [µM]	Papp (in vitro [2]) [×10⁻⁶ cm/s]	Papp (in vitro [3]) [×10⁻⁶ cm/s]	Intrinsic activity [4]
CCCCC[C@H](O)/C=C/[C@@H]1[C@@H](C/C=C\CCCC(=O)NCCc2ccc(S(N)(=O)=O)cc2)[C@@H](O)C[C@H]1O	> 5.01	–	–	–
CC(C)OC(=O)CCC/C=C\C[C@@H]1[C@@H](CNCC(=O)Nc2nnc(S(N)(=O)=O)s2)[C@H](O)C[C@@H]1O	> 5.01	3.1	2.1	–
COC(=O)CCC/C=C\C[C@@H]1[C@@H](c2cn(-c3ccc(S(N)(=O)=O)cc3)nn2)[C@H](O)C[C@@H]1O	> 5.01	2.1	3.2	–
NS(=O)(=O)c1nnc(NC(=O)CNC[C@@H]2[C@@H](C/C=C\CCCC(=O)O)[C@@H](O)C[C@H]2O)s1	> 5.01	0.94	3	–
CCCCC[C@H](O)/C=C/[C@@H]1[C@@H](C/C=C\CCCC(=O)N(CC)[C@H]2CN(CCCOC)S(=O)(=O)C3SC(S(N)(=O)=O)=CC32)[C@@H](O)C[C@H]1O (some centres undefined)	> 5.01	–	–	–
CC(C)OC(=O)CCC/C=C\C[C@@H]1[C@@H](/C=C/C(=O)Nc2nnc(S(N)(=O)=O)s2)[C@H](O)C[C@@H]1O	> 5.01	–	–	–
CCN(C(=O)/C=C/[C@@H]1[C@@H](C/C=C\CCCC(=O)OC(C)C)[C@@H](O)C[C@H]1O)[C@H]1C[C@H](C)S(=O)(=O)C2SC(S(N)(=O)=O)=CC21 (some centres undefined)	> 5.01	–	–	–
O=C(O)CCC/C=C\C[C@@H]1[C@@H](CC[C@@H](O)CCc2ccccc2)[C@H](O)C[C@@H]1O [LATANOPROST ACID]	0.00631	1.2	3.5	1
CCCCC[C@H](O)/C=C/[C@@H]1[C@@H](C/C=C\CCCC(=O)O)[C@@H](O)C[C@H]1O [DINOPROST]	–	9.7	3.3	1
CCN(C(=O)/C=C/[C@@H]1[C@@H](C/C=C\CCCC(=O)O)[C@@H](O)C[C@H]1O)[C@H]1C[C@H](C)S(=O)(=O)C2SC(S(N)(=O)=O)=CC21 (some centres undefined)	> 5.01	–	–	–
CCCCC[C@H](O)/C=C/[C@@H]1[C@@H](C/C=C\CCCC(=O)Nc2nnc(S(N)(=O)=O)s2)[C@@H](O)C[C@H]1O	3.98	6.4	1.6	0.9
NS(=O)(=O)c1ccc(-n2cc([C@@H]3[C@@H](C/C=C\CCCC(=O)O)[C@@H](O)C[C@H]3O)nn2)cc1	2	1.7	3.3	> 1
